Columns and labels:
Type in all cases: functional
SK-OV-3 [1] = experiment: Cytotoxicity against human SKOV3 cells assessed as cell growth level at 10 uM after 48 hrs by sulforhodamine B assay
UACC-62 [2] = experiment: Cytotoxicity against human UACC62 cells assessed as cell growth level at 10 nM after 48 hrs by sulforhodamine B assay
MOLT-4 = experiment: Cytotoxicity against human MOLT4 cells assessed as cell growth level at 100 nM after 48 hrs by sulforhodamine B assay
NCI-H23 [3] = experiment: Cytotoxicity against human NCI-H23 cells assessed as cell growth level at 100 uM after 48 hrs by sulforhodamine B assay
UACC-257 [4] = experiment: Cytotoxicity against human UACC257 cells assessed as cell growth level at 1 uM after 48 hrs by sulforhodamine B assay
[5] = Cytotoxicity against human Hs 578T cells after 48 hrs by sulforhodamine B assay
SR [6] = experiment: Cytotoxicity against human SR cells after 48 hrs by sulforhodamine B assay
KM12 [7] = experiment: Cytotoxicity against human KM12 cells assessed as cell growth level at 100 nM after 48 hrs by sulforhodamine B assay
A498 = experiment: Cytotoxicity against human A498 cells assessed as cell growth level at 100 uM after 48 hrs by sulforhodamine B assay
CCRF-CEM = experiment: Cytotoxicity against human CCRF-CEM cells assessed as cell growth level at 10 uM after 48 hrs by sulforhodamine B assay
UACC-62 [8] = experiment: Cytotoxicity against human UACC62 cells assessed as cell growth level at 100 nM after 48 hrs by sulforhodamine B assay
SN12C [9] = experiment: Cytotoxicity against human SN12C cells assessed as cell growth level at 1 uM after 48 hrs by sulforhodamine B assay
SK-MEL-2 [10] = experiment: Cytotoxicity against human SK-MEL-2 cells assessed as cell growth level at 100 nM after 48 hrs by sulforhodamine B assay
SN12C [11] = experiment: Cytotoxicity against human SN12C cells after 48 hrs by sulforhodamine B assay
NCI-H322M = experiment: Cytotoxicity against human NCI-H322M cells assessed as cell growth level at 1 uM after 48 hrs by sulforhodamine B assay
786-0 = experiment: Cytotoxicity against human 786-0 cells assessed as cell growth level at 1 uM after 48 hrs by sulforhodamine B assay
SK-MEL-2 [12] = experiment: Cytotoxicity against human SK-MEL-2 cells assessed as cell growth level at 1 uM after 48 hrs by sulforhodamine B assay
SK-MEL-28 = experiment: Cytotoxicity against human SK-MEL-28 cells assessed as cell growth level at 100 nM after 48 hrs by sulforhodamine B assay
SNB-19 [13] = experiment: Cytotoxicity against human SNB19 cells after 48 hrs by sulforhodamine B assay; settings: SNB-19, 48 h
RPMI-8226 = experiment: Cytotoxicity against human RPMI8226 cells assessed as cell growth level at 100 uM after 48 hrs by sulforhodamine B assay
HCT-15 [14] = experiment: Cytotoxicity against human HCT15 cells assessed as cell growth level at 10 uM after 48 hrs by sulforhodamine B assay
SNB-19 [15] = experiment: Cytotoxicity against human SNB19 cells assessed as cell growth level at 100 nM after 48 hrs by sulforhodamine B assay
NCI-H23 [16] = experiment: Cytotoxicity against human NCI-H23 cells assessed as cell growth level at 100 nM after 48 hrs by sulforhodamine B assay
COLO 205 = experiment: Cytotoxicity against human COLO205 cells after 48 hrs by sulforhodamine B assay; settings: COLO 205, 48 h
SF-268 [17] = experiment: Cytotoxicity against human SF268 cells assessed as cell growth level at 100 nM after 48 hrs by sulforhodamine B assay
SR [18] = experiment: Cytotoxicity against human SR cells assessed as cell growth level at 1 uM after 48 hrs by sulforhodamine B assay
HCT-15 [19] = experiment: Cytotoxicity against human HCT15 cells assessed as cell growth level at 1 uM after 48 hrs by sulforhodamine B assay
Bacillus subtilis = experiment: Antibacterial activity against Bacillus subtilis assessed as bacterial growth inhibition at 50 ug/ml after 24 hrs by cup-plate agar diffusion method; settings: read-out: IZ
SF-268 [20] = experiment: Cytotoxicity against human SF268 cells assessed as cell growth level at 1 uM after 48 hrs by sulforhodamine B assay
ACHN = experiment: Cytotoxicity against human ACHN cells assessed as cell growth level at 1 uM after 48 hrs by sulforhodamine B assay
KM12 [21] = experiment: Cytotoxicity against human KM12 cells assessed as cell growth level at 10 nM after 48 hrs by sulforhodamine B assay
HCC 2998 = experiment: Cytotoxicity against human HCC2998 cells assessed as cell growth level at 100 nM after 48 hrs by sulforhodamine B assay
Malme-3M = experiment: Cytotoxicity against human MALME-3M cells assessed as cell growth level at 10 nM after 48 hrs by sulforhodamine B assay
UACC-257 [22] = experiment: Cytotoxicity against human UACC257 cells assessed as cell growth level at 100 nM after 48 hrs by sulforhodamine B assay
M14 = experiment: Cytotoxicity against human M14 cells assessed as cell growth level at 10 uM after 48 hrs by sulforhodamine B assay
OVCAR-5 = experiment: Cytotoxicity against human OVCAR5 cells assessed as cell growth level at 10 nM after 48 hrs by sulforhodamine B assay
OVCAR-4 [23] = experiment: Cytotoxicity against human OVCAR4 cells assessed as cell growth level at 10 uM after 48 hrs by sulforhodamine B assay
CAKI-1 = experiment: Cytotoxicity against human CAKI-1 cells assessed as cell growth level at 100 nM after 48 hrs by sulforhodamine B assay
OVCAR-4 [24] = experiment: Cytotoxicity against human OVCAR4 cells assessed as cell growth level at 100 nM after 48 hrs by sulforhodamine B assay
A549 = experiment: Cytotoxicity against human A549/ATCC cells assessed as cell growth level at 100 nM after 48 hrs by sulforhodamine B assay
SK-OV-3 [25] = experiment: Cytotoxicity against human SKOV3 cells assessed as cell growth level at 100 nM after 48 hrs by sulforhodamine B assay
[26] = read-out: LC50 (the source's name)
[27] = read-out: pLC50 (the source's name) (converted)

## O=c1oc2ccccc2cc1-c1csc(N/N=C/c2c[nH]c3ccccc23)n1
SK-OV-3 [1]
  Activity: 62.24%
UACC-62 [2]
  Activity: 95%
MOLT-4
  Activity: 97%
NCI-H23 [3]
  Activity: -17%
UACC-257 [4]
  Activity: 82%
[5]; read-out: GI50
  GI50: 3.2 µM
[5]; [26]
  CC50: > 100 µM
[5]; read-out: TGI
  TGI: 58.9 µM
[5]; read-out: pGI50 (converted)
  GI50: 3.16 µM
[5]; [27]
  CC50: > 100 µM
[5]; read-out: pTGI (converted)
  TGI: 58.9 µM
SR [6]; read-out: GI50
  GI50: 1.83 µM
SR [6]; read-out: LC50
  LC50: > 100 µM
SR [6]; read-out: TGI
  TGI: 4.92 µM
SR [6]; read-out: pGI50 (converted)
  GI50: 1.82 µM
SR [6]; read-out: pLC50 (converted)
  LC50: > 100 µM
SR [6]; read-out: pTGI (converted)
  TGI: 4.9 µM
KM12 [7]
  Activity: 98%
A498
  Activity: -53%
CCRF-CEM
  Activity: -26.91%
UACC-62 [8]
  Activity: 96%
SN12C [9]
  Activity: 45%
SK-MEL-2 [10]
  Activity: 95%
SN12C [11]; read-out: GI50
  GI50: 1.08 µM
SN12C [11]; [26]
  CC50: > 100 µM
SN12C [11]; read-out: TGI
  TGI: 3.96 µM
SN12C [11]; read-out: pGI50 (converted)
  GI50: 1.07 µM
SN12C [11]; [27]
  CC50: > 100 µM
SN12C [11]; read-out: pTGI (converted)
  TGI: 3.98 µM
NCI-H322M
  Activity: 92%
786-0
  Activity: 80%
SK-MEL-2 [12]
  Activity: 90%
SK-MEL-28
  Activity: 91%
SNB-19 [13]; read-out: GI50
  GI50: 3.39 µM
SNB-19 [13]; [26]
  CC50: > 100 µM
SNB-19 [13]; read-out: TGI
  TGI: 62.1 µM
SNB-19 [13]; read-out: pGI50 (converted)
  GI50: 3.39 µM
SNB-19 [13]; [27]
  CC50: > 100 µM
SNB-19 [13]; read-out: pTGI (converted)
  TGI: 61.7 µM
RPMI-8226
  Activity: -41%
HCT-15 [14]
  Activity: 12.32%
SNB-19 [15]
  Activity: 89%
NCI-H23 [16]
  Activity: 88%
COLO 205; read-out: GI50
  GI50: 1.92 µM
COLO 205; read-out: LC50
  LC50 (concentration killing 50% of cells): 6.55 µM
COLO 205; read-out: TGI
  TGI: 3.55 µM
COLO 205; read-out: pGI50 (converted)
  GI50: 1.91 µM
COLO 205; read-out: pLC50 (converted)
  LC50 (concentration killing 50% of cells): 6.61 µM
COLO 205; read-out: pTGI (converted)
  TGI: 3.55 µM
SF-268 [17]
  Activity: 88%
SR [18]
  Activity: 81%
HCT-15 [19]
  Activity: 84%
Bacillus subtilis
  zone of inhibition at 50 µg/mL: 18 mm
SF-268 [20]
  Activity: 86%
ACHN
  Activity: 72%
KM12 [21]
  Activity: 99%
HCC 2998
  Activity: 97%
Malme-3M
  Activity: 100%
UACC-257 [22]
  Activity: 88%
M14
  Activity: 34.19%
OVCAR-5
  Activity: 102%
OVCAR-4 [23]
  Activity: -4.09%
CAKI-1
  Activity: 88%
OVCAR-4 [24]
  Activity: 91%
A549
  Activity: 92%
SK-OV-3 [25]
  Activity: 90%

Source: ChEMBL document CHEMBL3580659, “One-pot multicomponent synthesis of indole incorporated thiazolylcoumarins and their antibacterial, anticancer and DNA cleavage studies” (2015)
